# Experimental data reported in ChEMBL document CHEMBL3608235, “Pyrroloaryls and pyrroloheteroaryls: Inhibitors of the HIV fusion/attachment, reverse transcriptase and integrase” (Bioorg Med Chem, 2015).
# Legend:
# [1] = system: Human immunodeficiency virus 1; experiment: Antiviral activity against HIV1 infected in human MT4 cells; type: functional, organism-based; conditions: Human immunodeficiency virus 1, MT4
# [2] = system: Human immunodeficiency virus 1; experiment: Antiviral activity against HIV1 93BR020 assessed as inhibition of virus mediated cell fusion between CEMx174 5.25M7 cells and PBMC/HIV1 93BR020 cells; type: functional, organism-based; conditions: Human immunodeficiency virus 1, 93BR020, CEMx174 5.25M7
# [3] = system: Human immunodeficiency virus 1; experiment: Antiviral activity against HIV1 3B; type: functional, organism-based; conditions: Human immunodeficiency virus 1, 3B
# [4] = system: Human immunodeficiency virus 1; experiment: Antiviral activity against HIV1 3B assessed as inhibition of virus mediated cell fusion between MT2 cells and H9/HIV1 3B cells; type: functional, organism-based; conditions: Human immunodeficiency virus 1, 3B
# [5] = Toxicity against human U373-MAGI-CXCR4-CEM cells; type: cell-based
# [6] = system: Human immunodeficiency virus 1; experiment: Antiviral activity against HIV1 SF162 assessed as inhibition of virus mediated cell fusion between CEMx174 5.25M7 cells and PBMC/HIV1 SF162 cells; type: functional, organism-based; conditions: Human immunodeficiency virus 1, SF162, CEMx174 5.25M7
# [7] = system: Human immunodeficiency virus 1; experiment: Antiviral activity against HIV1 92UG029 assessed as inhibition of virus mediated cell fusion between CEMx174 5.25M7 cells and […] cells; type: functional, organism-based; conditions: Human immunodeficiency virus 1, 92UG029, CEMx174 5.25M7
# [8] = system: Human immunodeficiency virus 1; experiment: Antiviral activity against HIV1 BCF02 assessed as inhibition of virus mediated cell fusion between CEMx174 5.25M7 cells and […] cells; type: functional, organism-based; conditions: Human immunodeficiency virus 1, BCF02, CEMx174 5.25M7
# [9] = system: Human immunodeficiency virus 1; experiment: Antiviral activity against HIV1 SF2; type: functional, organism-based; conditions: Human immunodeficiency virus 1, SF2
# [10] = system: Human immunodeficiency virus 1; experiment: Antiviral activity against HIV1 93TH051 assessed as inhibition of virus mediated cell fusion between CEMx174 5.25M7 cells and PBMC/HIV1 93TH051 cells; type: functional, organism-based; conditions: Human immunodeficiency virus 1, 93TH051, CEMx174 5.25M7
# [11] = Toxicity against human CEMx174 5.25M7 cells; type: cell-based
# [12] = Toxicity against human MT2 cells; type: cell-based
# [13] = system: Human immunodeficiency virus 1; experiment: Antiviral activity against HIV1 RF; type: functional, organism-based; conditions: Human immunodeficiency virus 1, RF
# [14] = Toxicity against human U87-T4-CXCR4 cells; type: cell-based, U-87MG ATCC
# [15] = Cytotoxicity against human MT2 cells; type: cell-based; conditions: read-out: TC50 (the source's name)
# [16] = system: Human immunodeficiency virus 1; experiment: Antiviral activity against HIV1 3B infected in human MT2 cells assessed as reduction in virus-induced cell death; type: functional; conditions: Human immunodeficiency virus 1, 3B
# [17] = system: Human immunodeficiency virus 1; experiment: Antiviral activity against HIV1 3B infected in human primary lymphocytes assessed as reduction in p24 production incubated for 4 days by ELISA method; type: functional, organism-based; conditions: Human immunodeficiency virus 1, 3B, 96 h
# PBL = experiment: Cytotoxicity against human PBL cells incubated for 4 days by MTT assay; type: cell-based; conditions: 96 h
# [18] = system: Human immunodeficiency virus 1; experiment: Antiviral activity against HIV1 by single-cycle antiviral assay; type: functional, organism-based
# [19] = system: Human immunodeficiency virus 1; experiment: Antiviral activity against HIV1 by multi-cycle antiviral assay; type: functional, organism-based
# KB = experiment: Cytotoxicity against human KB cells; type: cell-based
# [20] = system: Human immunodeficiency virus; experiment: Antiviral activity against HIV by XTT assay; type: functional, organism-based; conditions: Human immunodeficiency virus 1
# [21] = system: Human immunodeficiency virus; experiment: Antiviral activity against HIV by syncytial plaque assay; type: functional, organism-based; conditions: Human immunodeficiency virus 1
# [22] = system: Human immunodeficiency virus 2; experiment: Antiviral activity against HIV2 by XTT assay; type: functional, organism-based
# [23] = system: Human immunodeficiency virus 1; experiment: Antiviral activity against HIV1 by XTT assay; type: functional, organism-based
# [24] = system: Human immunodeficiency virus 1; experiment: Antiviral activity against HIV1 TLAV; type: functional, organism-based; conditions: Human immunodeficiency virus 1, TLAV
# [25] = system: Human immunodeficiency virus 2; experiment: Antiviral activity against HIV2 LAI; type: functional, organism-based; conditions: Human immunodeficiency virus 2, LAI
# [26] = system: Human immunodeficiency virus 1; experiment: Antiviral activity against HIV1 JRFL; type: functional, organism-based; conditions: Human immunodeficiency virus 1, JRFL
# [27] = system: Human immunodeficiency virus 1; experiment: Antiviral activity against HIV1 SF162; type: functional, organism-based; conditions: Human immunodeficiency virus 1, SF162
# [28] = system: Human immunodeficiency virus 1; experiment: Antiviral activity against HIV1 BAL; type: functional, organism-based; conditions: Human immunodeficiency virus 1, BAL
# [29] = system: Human immunodeficiency virus 1; experiment: Antiviral activity against HIV1 NL4-3; type: functional, organism-based; conditions: Human immunodeficiency virus 1, NL4-3
# [30] = target: Human immunodeficiency virus type 1 reverse transcriptase (Human immunodeficiency virus 1) (UniProt Q72547); experiment: Inhibition of HIV1 reverse transcriptase at 330 uM
# [31] = Selectivity index, ratio of IC50 for human C8166 cells to EC50 for HIV1 3B infected in human C8166 cells; type: toxicity, cell-based; conditions: C8166 cells (uninfected and HIV1 3B-infected), read-out: Ratio IC50/EC50
# C8166 = experiment: Cytotoxicity against human C8166 cells; type: cell-based; conditions: Homo sapiens, C8166
# [32] = system: Human immunodeficiency virus 1; experiment: Antiviral activity against HIV1 3B infected in human C8166 cells assessed as inhibition of virus replication; type: functional, organism-based; conditions: Human immunodeficiency virus 1, 3B
# [33] = Inhibition of HIV1 LTR-mediated transcription assessed as drug level causing 50% inhibition of protein/RNA complex formation incubated for 15 mins; design: species or system Human immunodeficiency virus
# [34] = system: Human immunodeficiency virus; experiment: Antiviral activity against HIV; type: functional, organism-based; conditions: Human immunodeficiency virus 1
# [35] = Selectivity index, ratio of IC50 for human CEM-SS cells to EC50 for HIV1 infected in human CEM-SS cells; type: toxicity, cell-based; conditions: CEM-SS cells (uninfected and HIV1-infected), read-out: Ratio IC50/EC50
# [36] = Selectivity index, ratio of CC50 for mock-infected human MT4 cells to EC50 for HIV1 infected in human MT4 cells; type: toxicity, cell-based; conditions: MT4 cells (mock-infected and HIV1-infected), read-out: Ratio CC50/EC50
# [37] = system: Human immunodeficiency virus 1; experiment: Antiviral activity against CXCR4-tropic HIV1 LAI infected in human MT2 cells by monogram phenosense entry assay; type: functional, organism-based; conditions: Human immunodeficiency virus 1, LAI
# [38] = system: Human immunodeficiency virus 1; experiment: Antiviral activity against CCR5-tropic HIV1 BAL infected in human PM1 cells by monogram phenosense entry assay; type: functional, organism-based; conditions: Human immunodeficiency virus 1, BAL
# [39] = system: Human immunodeficiency virus 1; experiment: Antiviral activity against CCR5-tropic HIV1 SF162 infected in human PM1 cells by monogram phenosense entry assay; type: functional, organism-based; conditions: Human immunodeficiency virus 1, SF162, PM1
# [40] = system: Human immunodeficiency virus 1; experiment: Antiviral activity against CCR5-tropic HIV1 JRFL infected in human PM1 cells by monogram phenosense entry assay; type: functional, organism-based; conditions: Human immunodeficiency virus 1, JRFL
# [41] = system: Human immunodeficiency virus 1; experiment: Antiviral activity against CXCR4-tropic HIV1 MN infected in human MT2 cells by monogram phenosense entry assay; type: functional, organism-based; conditions: Human immunodeficiency virus 1, MN
# [42] = system: Human immunodeficiency virus 1; experiment: Antiviral activity against CXCR4-tropic HIV1 NL4-3 infected in human MT2 cells by monogram phenosense entry assay; type: functional, organism-based; conditions: Human immunodeficiency virus 1, NL4-3, MT2
# [43] = system: Human immunodeficiency virus 1; experiment: Antiviral activity against CXCR4-tropic HIV1 3B infected in human MT2 cells by monogram phenosense entry assay; type: functional, organism-based; conditions: Human immunodeficiency virus 1, 3B
structure (smiles),measurement,setting,value
CCOC(=O)c1cc2c3cccc(OC)c3c3c(N)cccc3n2c1C,EC50,[1],60 µM
Cc1ccc(C)n1-c1ccc(C(=O)O)c(O)c1,EC50,[2],7.04 µM
same,EC50,[3],1.04 µM
same,EC50,[4],6.74 µM
same,CC50,[5],1860 µM
same,EC50,[6],20.6 µM
same,EC50,[7],10.6 µM
same,EC50,[8],3.94 µM
same,EC50,[9],1.86 µM
same,EC50,[10],7.46 µM
same,CC50,[11],2490 µM
same,CC50,[12],2760 µM
same,EC50,[13],1.69 µM
same,CC50,[14],> 4000 µM
CCOC(=O)c1cc2c3ccccc3c3ccccc3n2c1C,EC50,[1],100 µM
O=C1c2ccccc2C(=O)N1CCCCCN1C(=O)[C@H](Cc2ccc(O)cc2)n2cccc2-c2ccccc21,CC50,[15],> 50 µg/mL
same,IC90,[16],2.6 µg/mL
CN1C(=O)c2ccn(C)c2S(=O)(=O)c2ccccc21,EC50,[17],14 µM
same,EC50,PBL,> 362 µM
O=C1NC(c2cccnc2)c2c(-c3ccccc3)n[nH]c21 (centres undefined),EC50,[18],8.2 µM
same,EC50,[19],7.5 µM
CN1N=C(N)c2cn([C@@H]3O[C@H](CO)[C@@H](O)[C@H]3O)c3nc(-c4ccccc4)nc1c23,EC50,KB,> 100 µM
same,IC50,[20],3 µM
CN1N=C(N)c2cn([C@@H]3O[C@H](COP(=O)(O)O)[C@@H](O)[C@H]3O)c3ncnc1c23 [TRICIRIBINE PHOSPHATE],IC50,[21],0.01 µM
same,IC50,[22],0.02 µM
same,IC50,[23],0.02 µM
O=C1[C@H](Cc2ccc(O)cc2)n2cccc2-c2ccccc2N1CCc1ccc(O)cc1,CC50,[15],10 µg/mL
same,IC90,[16],0.8 µg/mL
Cn1ccc2c1C(=O)Nc1ccccc1S2,EC50,[17],16 µM
same,EC50,PBL,> 434 µM
O=C(C(=O)N1CCN(C(=O)c2ccccc2)CC1)c1c[nH]c2ccccc12,EC50,[24],0.85 µM
same,EC50,[9],0.85 µM
same,EC50,[25],0.85 µM
same,EC50,[26],0.85 µM
same,EC50,[27],0.85 µM
same,EC50,[28],0.85 µM
same,EC50,[29],0.85 µM
O=C1c2cnncc2C2(c3ccccc3)NCCN12 (centres undefined),inhibition,[30],36%
CCC1(c2cccc(OC)c2)Oc2ccccc2-n2cccc2C1=O (centres undefined),selectivity ratio,[31],212
same,IC50,C8166,7 µM
same,EC50,[32],0.033 µM
COc1cc2c(cc1OCCC(=O)Nc1cc(C(=O)Nc3cc(C(=O)Nc4cc(C(=O)NCCC(=N)N)n(C)c4)n(C)c3)n(C)c1)N=C[C@@H]1CCCN1C2=O,AC50,[33],15 µM
CCOC(=O)c1cc2c3cc(OC)ccc3c3ccc(N)cc3n2c1C,EC50,[1],120 µM
N#Cc1cn(COCCO)c2ncnc(N)c12,IC50,[34],46 µM
Cc1ccnc2c1NC(=O)c1cccnc1N2C1CC1 [NEVIRAPINE],selectivity ratio,[31],> 250
same,selectivity ratio,[35],525
same,selectivity ratio,[36],> 800
O=C(O)c1cc(-n2cccc2)ccc1Cl,EC50,[2],10.1 µM
same,EC50,[3],2.21 µM
same,EC50,[4],29.9 µM
same,CC50,[5],> 4000 µM
same,EC50,[6],93.1 µM
same,EC50,[7],29 µM
same,EC50,[8],46.4 µM
same,EC50,[9],4.75 µM
same,EC50,[10],57.3 µM
same,CC50,[11],> 4000 µM
same,CC50,[12],> 4000 µM
same,EC50,[13],3.58 µM
same,CC50,[14],> 4000 µM
COc1cnc(-n2cnc(C)n2)c2[nH]cc(C(=O)C(=O)N3CCN(C(=O)c4ccccc4)CC3)c12 [TEMSAVIR],EC50,[37],0.0007 µM
same,EC50,[38],0.0017 µM
same,EC50,[39],0.0005 µM
same,EC50,[40],0.0004 µM
same,EC50,[41],0.0148 µM
same,EC50,[42],0.0022 µM
same,EC50,[43],0.0162 µM
CSc1c(C#N)c2c(N)ncnc2n1COC(CO)CO,IC50,[34],20 µM
O=C(C(=O)N1CCN(C(=O)c2ccccc2)CC1)c1c[nH]c2cccc(F)c12,EC50,[24],0.85 µM
same,EC50,[9],0.85 µM
same,EC50,[25],0.85 µM
same,EC50,[26],0.85 µM
same,EC50,[27],0.85 µM
same,EC50,[28],0.85 µM
same,EC50,[29],0.85 µM
COc1cc2c(cc1OCCC(=O)Nc1cc(C(=O)Nc3cc(C(=O)Nc4cc(C(=O)Nc5cc(C(=O)NCCC(=N)N)n(C)c5)n(C)c4)n(C)c3)n(C)c1)N=C[C@@H]1CCCN1C2=O,AC50,[33],10 µM
N#Cc1cn(COC(CO)CO)c2nc(N)nc(O)c12,IC50,[34],3 µM
O=C1NC(c2ccc(O)cc2)c2c(-c3ccccc3)n[nH]c21 (centres undefined),EC50,[18],1.8 µM
same,EC50,[19],1.4 µM
O=C(C[C@H]1C(=O)Nc2ccccc2C2CCCN21)OCc1ccccc1 (some centres undefined),EC50,[17],0.86 µM
same,EC50,PBL,28.5 µM
COc1cc2c(cc1OCCC(=O)Nc1cc(C(=O)Nc3cc(C(=O)NCCC(=N)N)n(C)c3)n(C)c1)N=C[C@@H]1CCCN1C2=O,AC50,[33],20 µM
O=C(C[C@H]1C(=O)Nc2ccccc2-c2cccn21)OCc1ccccc1,CC50,[15],10 µg/mL
same,IC90,[16],0.29 µg/mL
